A word on the viability, T/C: it is the result in the treated group divided by that in the control group, in per cent. In general, IC50 refers to the concentration needed to halve the response being measured.

Bounds are passed on as bounds.

For this assay, the system named is 883617-216-R-J1-PDC tumor spheroids, viability. The experiment in a line: Anticancer human tumor 883617-216-R-J1-PDC patient-derived bladder carcinoma cell line growth inhibition [PI3K]. The conditions noted are these: spheroids with HUVEC and MSC; for viability, T/C: stronger effect = lower value. A digest of the protocol:
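Combination activity was assessed by viability in multicellular tumor spheroids carrying HUVEC and MSC components. Agents were tested with PI3K inhibitors from a Cmax-based top dose (or 10 microM) downward in half-log increments.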
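Further: spheroids exposed to agents for 7 days before the viability read.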

Take `COc1c(OCCCN2CCOCC2)ccc2c3n(c(=NC(=O)c4cnc(N)nc4)nc12)CCN3`: the viability, T/C is, setting by setting: (compound 0.00316 µM) 93.8% [middle of 8 runs]; (compound 0.01 µM) 70.5% [middle of 8 runs]; (compound 0.0316 µM) 40% [middle of 8 runs]; (compound 0.1 µM) 15.4% [middle of 8 runs]; (compound 0.316 µM) 4.37% [middle of 7 runs]; (compound 1 µM) 3.24% [middle of 8 runs]. For the same molecule, for the setting “compound alone, run of 04/25/2023”, the half-inhibitory concentration (IC50) was 20.7 nM [middle of 8 runs].

As for `Cn1cnc2c(F)c(Nc3ccc(Br)cc3Cl)c(C(=O)NOCCO)cc21` + Cc1nc(NC(=O)N2CCCC2C(N)=O)sc1-c1ccnc(C(C)(C)C(F)(F)F)c1, the IC50 runs as follows: (curve of first compound, second compound 0.0316 µM) 49.5 nM; (curve of first compound, second compound 0.1 µM) 22.4 nM; (curve of first compound, second compound 0.316 µM) less than 9.49 nM; (curve of first compound, second compound 1 µM) less than 9.49 nM; (curve of first compound, second compound 3.16 µM) less than 9.49 nM; (curve of first compound, second compound 10 µM) less than 9.49 nM. The viability, T/C is 64.4% (second compound 0.0316 µM, first compound 0.00949 µM); 48.8% (second compound 0.0316 µM, first compound 0.03 µM); 41.5% (second compound 0.0316 µM, first compound 0.0949 µM); 44.2% (second compound 0.0316 µM, first compound 0.3 µM); 30.8% (second compound 0.0316 µM, first compound 0.949 µM); 19.5% (second compound 0.0316 µM, first compound 3 µM). Moreover, the viability, T/C is 62.3% (second compound 0.1 µM, first compound 0.00949 µM); 45.1% (second compound 0.1 µM, first compound 0.03 µM); 33.5% (second compound 0.1 µM, first compound 0.0949 µM); 27.7% (second compound 0.1 µM, first compound 0.3 µM); 23.2% (second compound 0.1 µM, first compound 0.949 µM); 15.9% (second compound 0.1 µM, first compound 3 µM). The viability, T/C reads like this: (second compound 0.316 µM, first compound 0.00949 µM) 41.4%; (second compound 0.316 µM, first compound 0.03 µM) 27.9%; (second compound 0.316 µM, first compound 0.0949 µM) 25.8%; (second compound 0.316 µM, first compound 0.3 µM) 20.7%; (second compound 0.316 µM, first compound 0.949 µM) 16.8%; (second compound 0.316 µM, first compound 3 µM) 9.49%. Besides, the viability, T/C by setting is: (second compound 1 µM, first compound 0.00949 µM) 18.6%; (second compound 1 µM, first compound 0.03 µM) 19%; (second compound 1 µM, first compound 0.0949 µM) 15.9%; (second compound 1 µM, first compound 0.3 µM) 14%; (second compound 1 µM, first compound 0.949 µM) 11.9%; (second compound 1 µM, first compound 3 µM) 4.92%. Besides, the viability, T/C runs as follows: (second compound 3.16 µM, first compound 0.00949 µM) 11.2%; (second compound 3.16 µM, first compound 0.03 µM) 8.7%; (second compound 3.16 µM, first compound 0.0949 µM) 10.1%; (second compound 3.16 µM, first compound 0.3 µM) 7.89%; (second compound 3.16 µM, first compound 0.949 µM) 4.92%; (second compound 3.16 µM, first compound 3 µM) 2.19%. Also, the viability, T/C is, setting by setting: (second compound 10 µM, first compound 0.00949 µM) 4.41%; (second compound 10 µM, first compound 0.03 µM) 3.98%; (second compound 10 µM, first compound 0.0949 µM) 3.69%; (second compound 10 µM, first compound 0.3 µM) 3.12%; (second compound 10 µM, first compound 0.949 µM) 2.43%; (second compound 10 µM, first compound 3 µM) 1.07%.

For the molecule `CC(Cn1ccc(-c2ccc(C#N)c(Cl)c2)n1)NC(=O)c1cc(C(C)O)[nH]n1` (stereo not given), the viability, T/C (compound 0.1 µM) is 90.8% [middle of 4 runs]; the viability, T/C (compound 0.316 µM) is 104% [middle of 4 runs]; the viability, T/C (compound 1 µM) is 95.5% [middle of 4 runs]; the viability, T/C (compound 3.16 µM) was 110% [middle of 4 runs]; the viability, T/C (compound 10 µM) was 102% [middle of 4 runs]. In addition, the IC50 (curve of compound) was more than 10000 nM.
